Test results published in patent publication US10683297B2 (Sunshine Lake Pharma Co., Ltd., priority 2017, dated 2020).
Marks after values point to notes of the source that are not given here.

Tests used:
[1] = target: T1, FLT3 (h) (Homo sapiens, UniProt P36888); experiment: FLT3 (h) kinase assay; type: biochemical; settings: [γ-33P-ATP] 10 μM or KM values; cells of the FLT3 (h) column without (Flt4) tag
T1 construct: purchased Millipore UK Ltd (assays performed there as a service)
T1 sequence (P36888 27-993): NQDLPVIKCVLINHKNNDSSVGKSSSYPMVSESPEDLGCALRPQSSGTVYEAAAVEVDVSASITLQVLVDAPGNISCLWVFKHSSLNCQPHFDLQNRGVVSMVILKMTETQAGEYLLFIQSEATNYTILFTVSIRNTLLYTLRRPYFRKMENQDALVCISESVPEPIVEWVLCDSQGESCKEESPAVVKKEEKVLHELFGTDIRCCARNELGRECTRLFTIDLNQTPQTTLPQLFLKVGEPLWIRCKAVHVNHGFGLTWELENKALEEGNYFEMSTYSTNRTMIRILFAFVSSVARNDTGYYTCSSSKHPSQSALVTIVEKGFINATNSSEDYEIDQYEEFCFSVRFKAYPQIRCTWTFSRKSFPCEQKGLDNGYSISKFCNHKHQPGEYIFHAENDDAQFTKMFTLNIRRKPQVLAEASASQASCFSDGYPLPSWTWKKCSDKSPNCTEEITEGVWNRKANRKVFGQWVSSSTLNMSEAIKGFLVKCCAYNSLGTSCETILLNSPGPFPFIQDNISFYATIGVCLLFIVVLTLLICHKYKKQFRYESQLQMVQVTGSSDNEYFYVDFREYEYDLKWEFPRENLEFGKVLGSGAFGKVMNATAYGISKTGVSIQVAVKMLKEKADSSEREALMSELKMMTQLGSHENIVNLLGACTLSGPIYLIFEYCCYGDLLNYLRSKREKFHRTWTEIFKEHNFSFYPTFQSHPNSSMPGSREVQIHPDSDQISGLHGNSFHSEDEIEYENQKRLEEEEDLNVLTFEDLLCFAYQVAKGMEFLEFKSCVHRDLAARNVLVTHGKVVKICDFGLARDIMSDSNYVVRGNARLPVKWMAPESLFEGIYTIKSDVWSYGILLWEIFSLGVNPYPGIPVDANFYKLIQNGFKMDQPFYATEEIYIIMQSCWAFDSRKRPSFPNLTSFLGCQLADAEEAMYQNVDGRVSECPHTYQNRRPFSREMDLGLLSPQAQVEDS
Protocol: Kinase assays can be performed by measurement of incorporation of γ-^33P ATP into immobilized myelin basic protein (MBP). High binding white 384 well plates (Greiner) are coated with MBP (Sigma # M-1891) by incubation of 60 μL well of 20 μg/mL MBP in Tris-buffered saline (TBS; 50 mM Tris pH 8.0, 138 mM NaCl, 2.7 mM KCl) for 24 h at 4° C. Plates are washed 3× with 100 μL TBS. Kinase reactions are carried out in a total volume of 34 μL in kinase buffer (according to the need to make, for example, 5 mM Hepes pH 7.6, 15 mM NaCl, 0.01% bovine gamma globulin (Sigma #1-5506), 10 mM MgCl2, 1 mM DTT, 0.02% TritonX-100). Compound dilutions are performed in DMSO and added to assay wells to a final DMSO concentration of 1%. Each data point is measured in duplicate, and at least two duplicate assays are performed for each individual compound determination. Enzyme is added to final concentrations of 10 nM or 20 nM, for example. A mixture of unlabeled ATP and γ-^33P ATP is added to start the reaction (2×10^6 cpm of γ-^33P ATP per well (3000 Ci/mmole) and 10 μM unlabeled ATP, typically. The reactions are carried out for 1 hour at room temperature with shaking. Plates are washed 7× with TBS, followed by the addition of 50 μL well scintillation fluid (Wallac). Plates are read using a Wallac Trilux counter. This is only one format of such assays; various other formats are possible, as known to one skilled in the art.
The above assay procedure can be used to determine the IC50 for inhibition and/or the inhibition constant, Ki. […] The IC50 value is estimated by preparing a 10 point curve using a ½ log dilution series (for example, a typical curve may be prepared using the following compound concentrations: 3 μM, 1 μM, 0.3 μM, 0.1 μM, 0.03 μM, 0.01 μM, 0.003 μM, 0.001 μM, 0.0003 μM and 0 μM).
FLT3 (h) is incubated with 8 mM MOPS pH 7.0, 0.2 mM EDTA, 50 μM […], 10 mM MgAcetate and [γ-^33P-ATP] […] The reaction is initiated by the addition of the MgATP mix. […]

[2] = test system: PMA-induced increase in mouse ear thickness and weight; experiment: Topical PMA-induced acute atopic dermatitis in ICR mice; type: in vivo; settings: ICR female mice, 0.3 mg/ear/bid topical
Protocol: ICR female mice (20-30 g), five mice or nine mice/group, were used in this study. Five micrograms of PMA (phorbol 12-myristate 13-acetate) in 20 μL of ethanol was applied topically to the anterior and posterior surface of the right ear of each mouse. Twenty microliters of vehicle (ethanol/acetone ([…])=1/1); 0.3 mg of EX. 68 ([…]); EX. 76, EX. 50, EX. 92 or EX. 65 (0.3 mg […]) were administrated to the same areas 30 minutes before and 15 minutes after PMA application. The thickness of right ears of each mouse was measured 6 hours after PMA stimulation. Ear weight of right ears of each mouse was weighed with analytical balance Each value represents the Mean±Sem. Statistical significance compared with model groups (*P<0.05; **P<0.01). Tables 5-1, 5-2 and 5-3 listed the inhibitory effect on PMA-induced increase in mouse ear thickness and weight. The compounds of the present invention have a good inhibitory effect on PMA-induced increase in mouse ear thickness and weight.

Structure (SMILES)	IC50 [1] [nM]	Weight Inhibition ratio [2] [%]	thickness (right ear) ([2]; 30 minutes before and 15 minutes after PMA, 6 hours after PMA, Mean±Sem)	Weight (right ear) ([2]; 30 minutes before and 15 minutes after PMA, Mean±Sem)	thickness Inhibition ratio ([2]; 6 hours after PMA) [%]
Cc1cnc2cc(Nc3ncc(Cl)c(NC4CCN(c5ccc(C#N)nn5)CC4)n3)ccn12 [Example 12, 6-(4-((5-chloro-2-((3-methylimidazo[1,2-a]pyridin-7-yl)amino)pyrimidin-4-yl)amino)piperidin-1-yl)pyridazine-3-carbonitrile]	667				
CCC1CN(c2ccc(C#N)cn2)CCC1Nc1nc(Nc2ccn3c(C)cnc3c2)ncc1Cl (stereo not shown) [Example 2, 6-(4-((5-chloro-2-((3-methylimidazo[1,2-a]pyridin-7-yl)amino)pyrimidin-4-yl)amino)-3-ethylpiperidin-1-yl)nicotinonitrile]	287				
CC(C)(O)c1cnc2cc(Nc3ncc(Cl)c(NC4CCN(c5ccc(C#N)cn5)CC4)n3)ccn12 [Example 68, 6-(4-((5-chloro-2-((3-(2-hydroxypropan-2-yl)imidazo[1,2-a]pyridin-7-yl)amino)pyrimidin-4-yl)amino)piperidin-1-yl)nicotinonitrile]		80.6	0.219 ± 0.007** mm	18.11 ± 1.14* mg	86.6
CCC1CN(c2ccc(C#N)nn2)CCC1Nc1nc(Nc2ccn3c(C)cnc3c2)ncc1Cl (stereo not shown) [Example 3, 6-(4-((5-chloro-2-((3-methylimidazo[1,2-a]pyridin-7-yl)amino)pyrimidin-4-yl)amino)-3-ethylpiperidin-1-yl)pyridazine-3-carbonitrile]	591				
